The text below walks through data of patent publication US12421253B2 (Mirati Therapeutics, Inc., priority 2020, dated 2025).

For assay [1], the target named is KRas^Q61H (Homo sapiens, UniProt P01116, Q61H). The experiment in a line: biochemical.
Method: (§1) The ability of a compound to bind to KRas was measured using a TR-FRET displacement assay. […] After a 60-minute incubation at room temperature, the reaction was measured using a BMG LABTECH CLARIO star Plus via TR-FRET. […] The POC values were fit to a 4-parameter IC50 equation and the IC50 value reported.
Assay [2] concerns the target T1, KRas^G12A (Homo sapiens, UniProt P01116, G12A).
T1 construct: […]; biotin (biotinylated); purchased Accelegan Inc
The experiment in a line: KRas binding assay (TR-FRET displacement of Cy5 labelled tracer). A general note: TR-FRET usually uses a lanthanide donor and a delayed reading to cut background.
Method: as §1

The target of assay [3] is T2, KRas^G12D (Homo sapiens, UniProt P01116, G12D).
T2 construct: […]; biotin (biotinylated); purchased Accelegan Inc
The assay is described as above.
Method: as §1

Assay [4] addresses KRas^G12C (Homo sapiens, UniProt P01116, G12C). The experiment in a line: biochemical.
Method: as §1
The target in assay [5] is T3, KRas^WT (Homo sapiens, UniProt P01116).
T3 construct: […]; biotin (biotinylated); purchased Accelegan Inc
Kind of assay: KRas binding assay (TR-FRET displacement of Cy5 labelled tracer).
Method: as §1

The target in assay [6] is T4, KRas^G12S (Homo sapiens, UniProt P01116, G12S).
T4 construct: […]; biotin (biotinylated); purchased Accelegan Inc
Described as above.
Method: as §1

The target of assay [7] is T5, KRas^G12R (Homo sapiens, UniProt P01116, G12R).
T5 construct: […]; biotin (biotinylated); purchased Accelegan Inc
The description is as above.
Method: as §1

Assay [8] concerns the target T6, KRas^G12V (Homo sapiens, UniProt P01116, G12V).
T6 construct: […]; biotin (biotinylated); purchased Accelegan Inc
The description is as above.
Method: as §1

Assay [9] addresses KRas^G13D (Homo sapiens, UniProt P01116, G13D). The experiment in a line: biochemical.
Method: as §1

Sequence of KRas^Q61H (P01116 1-169 isoform P01116-2 Q61H): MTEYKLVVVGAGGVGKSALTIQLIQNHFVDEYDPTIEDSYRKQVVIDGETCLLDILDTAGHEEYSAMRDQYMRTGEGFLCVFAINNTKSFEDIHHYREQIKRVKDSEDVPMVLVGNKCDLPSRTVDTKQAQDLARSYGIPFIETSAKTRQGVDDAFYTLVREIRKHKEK
Sequence of KRas^G12C (P01116 1-169 isoform P01116-2 G12C): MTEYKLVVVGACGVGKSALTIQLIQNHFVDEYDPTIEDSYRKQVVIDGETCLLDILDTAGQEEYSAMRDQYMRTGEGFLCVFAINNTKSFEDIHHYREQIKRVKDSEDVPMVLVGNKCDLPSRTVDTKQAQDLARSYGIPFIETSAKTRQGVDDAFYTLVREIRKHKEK
Sequence of KRas^G13D (P01116 1-169 isoform P01116-2 G13D): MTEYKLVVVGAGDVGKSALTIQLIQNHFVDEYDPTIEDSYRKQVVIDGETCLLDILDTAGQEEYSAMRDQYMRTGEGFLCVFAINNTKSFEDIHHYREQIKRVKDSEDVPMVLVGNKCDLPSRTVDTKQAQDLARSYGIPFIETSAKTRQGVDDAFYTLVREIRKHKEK
T2 sequence (P01116 1-169 isoform P01116-2 G12D): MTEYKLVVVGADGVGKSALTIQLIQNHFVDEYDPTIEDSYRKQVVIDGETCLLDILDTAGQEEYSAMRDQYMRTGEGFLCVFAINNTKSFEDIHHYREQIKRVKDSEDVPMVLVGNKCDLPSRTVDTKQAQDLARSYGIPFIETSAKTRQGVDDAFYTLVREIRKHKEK
T6 sequence (P01116 1-169 isoform P01116-2 G12V): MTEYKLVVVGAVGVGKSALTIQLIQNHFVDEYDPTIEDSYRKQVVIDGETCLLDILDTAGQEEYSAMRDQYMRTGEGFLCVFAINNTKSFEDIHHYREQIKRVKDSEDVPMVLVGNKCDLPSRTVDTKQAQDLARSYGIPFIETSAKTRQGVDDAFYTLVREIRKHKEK
T4 sequence (P01116 1-169 isoform P01116-2 G12S): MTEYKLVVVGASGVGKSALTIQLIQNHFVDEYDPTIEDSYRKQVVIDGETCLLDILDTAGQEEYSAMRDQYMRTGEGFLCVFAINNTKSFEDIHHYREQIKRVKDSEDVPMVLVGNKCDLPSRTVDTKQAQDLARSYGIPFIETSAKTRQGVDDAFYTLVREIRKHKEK
T3 sequence (P01116 1-169 isoform P01116-2): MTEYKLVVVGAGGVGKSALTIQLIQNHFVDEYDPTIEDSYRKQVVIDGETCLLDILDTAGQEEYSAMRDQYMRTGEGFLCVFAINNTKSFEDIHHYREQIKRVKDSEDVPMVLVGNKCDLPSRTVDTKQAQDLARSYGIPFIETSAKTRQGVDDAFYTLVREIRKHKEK
T1 sequence (P01116 1-169 isoform P01116-2 G12A): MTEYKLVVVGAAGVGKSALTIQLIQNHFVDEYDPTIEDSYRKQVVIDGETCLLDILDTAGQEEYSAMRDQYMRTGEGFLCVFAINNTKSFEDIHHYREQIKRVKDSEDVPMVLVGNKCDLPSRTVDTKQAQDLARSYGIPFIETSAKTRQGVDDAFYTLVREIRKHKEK
T5 sequence (P01116 1-169 isoform P01116-2 G12R): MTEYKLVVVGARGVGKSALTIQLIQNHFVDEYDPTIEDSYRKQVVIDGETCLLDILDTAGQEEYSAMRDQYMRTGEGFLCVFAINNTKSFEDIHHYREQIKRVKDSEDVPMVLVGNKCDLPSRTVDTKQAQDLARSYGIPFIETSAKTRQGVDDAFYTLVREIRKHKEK

For orientation: IC50 means the point on the concentration scale where inhibition reaches its midpoint. Low values mean inhibition by little substance, high ones a need for much substance. Turning to `CCc1cccc2cccc(N3CCc4c(nc(OCC56CCCN5CCC6)nc4N4CCOCC(O)C4)C3)c12` (stereo not shown) [Example 6, 4-(7-(8-ethylnaphthalen-1-yl)-2-((tetrahydro-1H-pyrrolizin-7a(5H)-yl)methoxy)-5,6,7,8-tetrahydropyrido[3,4-d]pyrimidin-4-yl)-1,4-oxazepan-6-ol], the IC50 in assay [1] came out at 132 nM; in assay [2] it was 86 nM; in assay [3], 310 nM; in assay [4], 88 nM; in [5], 104 nM; in assay [6], 100 nM. Moreover, the results for the half-maximal inhibitory concentration (IC50) in assay [7], in assay [8] and in assay [9] were 71 nM, 118 nM and 159 nM, respectively.

Regarding `CCc1cccc2cccc(N3CCc4c(nc(OCC56CCCN5CCC6)nc4N4CCCC(O)CC4)C3)c12` (stereo not shown) [Example 7, 1-(7-(8-ethylnaphthalen-1-yl)-2-((tetrahydro-1H-pyrrolizin-7a(5H)-yl)methoxy)-5,6,7,8-tetrahydropyrido[3,4-d]pyrimidin-4-yl)azepan-4-ol], the IC50 in [1] is 173 nM; in [2], 92 nM; in assay [3], 121 nM; in [4] it was 89 nM; in [5], 143 nM; in assay [6], 107 nM. In addition, the IC50 amounted to 50 nM in [7], 68 nM in [8] and 143 nM in assay [9].

On to `CCc1cccc2cccc(N3CCc4c(nc(OCC56CCCN5CCC6)nc4N4CCCn5nc(CO)cc5C4)C3)c12` [Example 8, (5-(7-(8-ethylnaphthalen-1-yl)-2-((tetrahydro-1H-pyrrolizin-7a(5H)-yl)methoxy)-5,6,7,8-tetrahydropyrido[3,4-d]pyrimidin-4-yl)-5,6,7,8-tetrahydro-4H-pyrazolo[1,5-a][1,4]diazepin-2-yl)methanol], for which the IC50 in assay [1] is 567 nM; in [2], 316 nM; in assay [3] it was 43 nM; in assay [4] it was 139 nM; in assay [5] it was 271 nM; in assay [6], 175 nM. The results for the half-maximal inhibitory concentration (IC50) in assay [7], in assay [8] and in assay [9] were 102 nM, 137 nM and 628 nM, respectively.

On to `CCc1cccc2cccc(N3CCc4c(nc(OCC56CCCN5CCC6)nc4N4CCOCC(n5cccn5)C4)C3)c12` (stereo not shown) [Example 9, 4-(7-(8-ethylnaphthalen-1-yl)-2-((tetrahydro-1H-pyrrolizin-7a(5H)-yl)methoxy)-5,6,7,8-tetrahydropyrido[3,4-d]pyrimidin-4-yl)-6-(1H-pyrazol-1-yl)-1,4-oxazepane], for which the 50% inhibitory concentration (IC50) in assay [1] worked out at 76 nM; in assay [2] it was 128 nM; in assay [3], 192 nM; in [4], 115 nM; in assay [5], 54 nM; in assay [6] it was 154 nM. Also, the IC50 stood at 168 nM in assay [7], 165 nM in assay [8] and 66 nM in assay [9].

Turning to `CCc1cccc2cccc(N3CCc4c(nc(OCC56CCCN5CCC6)nc4N4CCCn5nc(N)cc5C4)C3)c12` [Example 10, 5-(7-(8-ethylnaphthalen-1-yl)-2-((tetrahydro-1H-pyrrolizin-7a(5H)-yl)methoxy)-5,6,7,8-tetrahydropyrido[3,4-d]pyrimidin-4-yl)-5,6,7,8-tetrahydro-4H-pyrazolo[1,5-a][1,4]diazepin-2-amine], the half-inhibitory concentration (IC50) in [1] is 291 nM; in [2], 169 nM; in assay [3] it was 67 nM; in assay [4], 81 nM; in assay [5] it was 171 nM; in assay [6], 101 nM. The IC50 in assay [7] came to 74 nM; in assay [8] it was 81 nM; in assay [9], 375 nM.

Turning to `CCc1cccc2cccc(N3CCc4c(nc(OCC56CCCN5CCC6)nc4N4C[C@@H]5C(=O)NC(=O)[C@@H]5C4)C3)c12` [Example 11, (3aR,6aS)-5-(7-(8-ethylnaphthalen-1-yl)-2-((tetrahydro-1H-pyrrolizin-7a(5H)-yl)methoxy)-5,6,7,8-tetrahydropyrido[3,4-d]pyrimidin-4-yl)tetrahydropyrrolo[3,4-c]pyrrole-1,3(2H,3aH)-dione], the concentration for half-maximal inhibition (IC50) was determined as 50 nM in assay [1]; 45 nM in [2]; 22 nM in assay [3]; 41 nM in [4]; 51 nM in [5]; 15 nM in assay [6]. The results for the IC50 in assay [7], in [8] and in assay [9] were 42 nM, 18 nM and 42 nM, respectively.

For `CCc1cccc2cccc(N3CCc4c(nc(OCC56CCCN5CCC6)nc4N4CCCC5(C4)NC(=O)NC5=O)C3)c12` (stereo not shown) [Example 12, 7-(7-(8-ethylnaphthalen-1-yl)-2-((tetrahydro-1H-pyrrolizin-7a(5H)-yl)methoxy)-5,6,7,8-tetrahydropyrido[3,4-d]pyrimidin-4-yl)-1,3,7-triazaspiro[4.5]decane-2,4-dione], the IC50 was ≤ 2 nM in assay [1]; ≤ 2 nM in assay [2]; 3 nM in assay [3]; ≤ 2 nM in [4]; ≤ 2 nM in assay [5]; ≤ 2 nM in assay [6]. Moreover, the IC50 in assay [7], in [8] and in [9] was ≤ 2 nM each time.

Turning to `CCc1cccc2cccc(N3CCc4c(nc(OCC56CCCN5CCC6)nc4N4CCC(O)C(CO)CC4)C3)c12` (stereo not shown) [Example 13, 1-(7-(8-ethylnaphthalen-1-yl)-2-((tetrahydro-1H-pyrrolizin-7a(5H)-yl)methoxy)-5,6,7,8-tetrahydropyrido[3,4-d]pyrimidin-4-yl)-5-(hydroxymethyl)azepan-4-ol], the half-inhibitory concentration (IC50) was 57 nM in assay [1]; 51 nM in assay [2]; 290 nM in assay [3]; 82 nM in [4]; 41 nM in assay [5]; 70 nM in [6]. Also, the results for the 50% inhibitory concentration (IC50) in assay [7], in [8] and in assay [9] were 99 nM, 73 nM and 40 nM, respectively.

`CCc1cccc2cccc(N3CCc4c(nc(OCC56CCCN5CCC6)nc4N4CCCCCC(S(C)(=O)=O)C4)C3)c12` (stereo not shown) [Example 14, 7-(8-ethylnaphthalen-1-yl)-4-(3-(methylsulfonyl)azocan-1-yl)-2-((tetrahydro-1H-pyrrolizin-7a(5H)-yl)methoxy)-5,6,7,8-tetrahydropyrido[3,4-d]pyrimidine]: the IC50 was 135 nM in assay [1]; 145 nM in [2]; 256 nM in assay [3]; 173 nM in [4]; 119 nM in [5]; 171 nM in assay [6]. For the same compound, the IC50 in [7] was 233 nM; in assay [8], 112 nM; in [9], 118 nM.

For the compound `CCc1cccc2cccc(N3CCc4c(nc(OCC56CCCN5CCC6)nc4N4CCOCC(CO)C4)C3)c12` (stereo not shown) [Example 37, (4-(7-(8-ethylnaphthalen-1-yl)-2-((hexahydro-1H-pyrrolizin-7a-yl)methoxy)-5,6,7,8-tetrahydropyrido[3,4-d]pyrimidin-4-yl)-1,4-oxazepan-6-yl)methanol], the IC50 in assay [3] stood at 479 nM; in assay [5], 214 nM; in assay [7], 168 nM; in assay [8] it was 221 nM.

As to `CCc1cccc2cccc(N3CCc4c(nc(OCC56CCCN5CCC6)nc4N4CCCCC(CO)C4)C3)c12` (stereo not shown) [Example 38, (1-(7-(8-ethylnaphthalen-1-yl)-2-((hexahydro-1H-pyrrolizin-7a-yl)methoxy)-5,6,7,8-tetrahydropyrido[3,4-d]pyrimidin-4-yl)azepan-3-yl)methanol], the 50% inhibitory concentration (IC50) in assay [3] is ≤ 2 nM; in assay [5], 445 nM; in assay [7] it was 485 nM; in assay [8], 204 nM.

Turning to `CCc1cccc2cccc(N3CCc4c(nc(OCC56CCCN5CCC6)nc4N4CCCC(O)C4)C3)c12` (stereo not shown) [Example 43, 1-(7-(8-ethylnaphthalen-1-yl)-2-((hexahydro-1H-pyrrolizin-7a-yl)methoxy)-5,6,7,8-tetrahydropyrido[3,4-d]pyrimidin-4-yl)piperidin-3-ol], the half-maximal inhibitory concentration (IC50) in assay [3] turned out to be 552 nM; in [4], 271 nM; in assay [7], 198 nM; in assay [8], 271 nM.

With `CCc1cccc2cccc(N3CCc4c(nc(OCC56CCCN5CCC6)nc4N4CCN(c5ccncn5)CC4)C3)c12` [Example 58, 7-(8-ethylnaphthalen-1-yl)-2-((hexahydro-1H-pyrrolizin-7a-yl)methoxy)-4-(4-(pyrimidin-4-yl)piperazin-1-yl)-5,6,7,8-tetrahydropyrido[3,4-d]pyrimidine], the IC50 in assay [3] was determined as 20000 nM; in [4], 6570 nM; in [7], 7910 nM; in [8] it was 2860 nM.

On to `CCc1cccc2cccc(N3CCc4c(nc(OCC56CCCN5CCC6)nc4NCCc4ccno4)C3)c12` [Example 169, 7-(8-ethylnaphthalen-1-yl)-N-(2-(isoxazol-5-yl)ethyl)-2-((tetrahydro-1H-pyrrolizin-7a(5H)-yl)methoxy)-5,6,7,8-tetrahydropyrido[3,4-d]pyrimidin-4-amine], for which the IC50 in [3] worked out at 8480 nM; in assay [7], 5120 nM; in [8], 7170 nM.

With `CCc1cccc2cccc(N3CCc4c(nc(OCC56CCCN5CCC6)nc4NCC4(C)CSC4)C3)c12` [Example 171, 7-(8-ethylnaphthalen-1-yl)-N-((3-methylthietan-3-yl)methyl)-2-((tetrahydro-1H-pyrrolizin-7a(5H)-yl)methoxy)-5,6,7,8-tetrahydropyrido[3,4-d]pyrimidin-4-amine], the results for the IC50 in assay [3], in assay [7] and in assay [8] were 16600 nM, 8280 nM and 8800 nM, respectively.
